Source: PMC7161706 (Acta Pharmaceutica Sinica. B, 2019)

What was measured:
[1] = target: T1, GuC4H1 (Glycyrrhiza uralensis, UniProt A0A6B7HXZ5); assay: yeast feeding, product by HPLC-Q-TOF-MS; assay type: cell-based; conditions: 20 μmol/L fed, 30 °C, 12 h; ATR1 reductase in WAT11
T1 sequence (A0A6B7HXZ5 1-505): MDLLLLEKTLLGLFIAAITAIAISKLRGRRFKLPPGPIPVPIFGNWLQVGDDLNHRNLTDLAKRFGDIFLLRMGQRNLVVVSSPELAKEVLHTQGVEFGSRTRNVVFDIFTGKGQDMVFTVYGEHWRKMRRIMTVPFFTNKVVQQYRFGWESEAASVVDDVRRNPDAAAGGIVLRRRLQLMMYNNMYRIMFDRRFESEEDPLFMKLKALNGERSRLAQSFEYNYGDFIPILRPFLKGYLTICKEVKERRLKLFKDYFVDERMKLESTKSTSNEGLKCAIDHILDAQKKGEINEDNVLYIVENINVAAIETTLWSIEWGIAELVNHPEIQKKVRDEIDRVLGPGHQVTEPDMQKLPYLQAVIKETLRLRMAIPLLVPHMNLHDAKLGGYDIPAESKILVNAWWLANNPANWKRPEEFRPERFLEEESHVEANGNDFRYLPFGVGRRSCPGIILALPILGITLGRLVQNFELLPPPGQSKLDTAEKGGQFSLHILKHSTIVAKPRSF

[2] = target: GuPAL1 (Glycyrrhiza uralensis, UniProt A0A6B7HYR5); assay: product by HPLC-Q-TOF-MS; assay type: biochemical; conditions: 1 mmol/L substrate, pH 8.0, 30 °C, 10 h
Sequence of GuPAL1 (A0A6B7HYR5 1-783 limits assumed): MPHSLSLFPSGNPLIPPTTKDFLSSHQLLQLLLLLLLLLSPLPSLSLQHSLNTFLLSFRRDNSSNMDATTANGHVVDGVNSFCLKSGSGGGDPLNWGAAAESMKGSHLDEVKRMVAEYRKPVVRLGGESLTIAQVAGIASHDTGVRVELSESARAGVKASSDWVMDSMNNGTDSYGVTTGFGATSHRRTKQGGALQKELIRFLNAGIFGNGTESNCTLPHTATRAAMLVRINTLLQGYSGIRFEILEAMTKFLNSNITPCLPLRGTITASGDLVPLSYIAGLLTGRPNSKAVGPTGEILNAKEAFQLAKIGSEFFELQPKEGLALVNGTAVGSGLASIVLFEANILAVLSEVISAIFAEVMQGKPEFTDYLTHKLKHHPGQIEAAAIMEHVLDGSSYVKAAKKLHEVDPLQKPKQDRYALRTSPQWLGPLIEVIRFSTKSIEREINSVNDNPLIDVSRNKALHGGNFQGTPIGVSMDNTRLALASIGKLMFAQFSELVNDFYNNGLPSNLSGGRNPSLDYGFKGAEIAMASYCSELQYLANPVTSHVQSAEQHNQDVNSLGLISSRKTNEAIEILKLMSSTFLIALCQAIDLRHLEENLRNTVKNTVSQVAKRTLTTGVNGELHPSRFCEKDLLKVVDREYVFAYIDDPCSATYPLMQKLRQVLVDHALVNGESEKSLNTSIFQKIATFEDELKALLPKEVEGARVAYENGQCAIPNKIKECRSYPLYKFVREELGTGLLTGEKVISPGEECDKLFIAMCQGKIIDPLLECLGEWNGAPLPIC

SMILES | yeast feeding, product by HPLC-Q-TOF-MS (p-coumaric acid) [1] | product by HPLC-Q-TOF-MS (cinnamic acid) [2]
O=C(O)/C=C/c1ccccc1 [CiA, cinnamic acid] | GuC4H1 was able to produce p-coumaric acid upon feeding cinnamic acid and galactose | –
N[C@@H](Cc1ccccc1)C(=O)O [Phe, phenylalanine] | – | incubation of the staring substrate phenylalanine with GuPAL1 yielded cinnamic acid
